The text below walks through data of patent US20230081720A1, “MCL-1 INHIBITOR ANTIBODY-DRUG CONJUGATES AND METHODS OF USE” (NOVARTIS AG, priority 2019, published 2023).

In one experiment the test system is Monomac1 cells. The experiment is described as follows: Viability of Monomac1 AML cell line, CellTiterGlo 72 h. It counts as cell-based. As to conditions: read-out: IC50 M (CTG 72 h) Monomac1. As for the experimental part:
Monomac1 cells were cultivated in RPMI supplemented with 10% heat inactivated fetal bovine serum, penicillin (100 IU/ml), streptomycin ([…]) and L-glutamine (2 mM). Cell lines were cultured at 37° C. in a humidified atmosphere containing 5% CO2. Cells were seeded in 96 microwell plates and exposed to the payloads or ADCs for 72 h (serially diluted; 9 concentrations each, triplicates). Effects of payloads or ADCs on cell viability were assessed after 3 days of incubation at 37° C./5% CO2 by quantification of cellular ATP levels using CellTiterGlo at 75 μL reagent/well. All the conditions were tested in triplicates. Luminescence was quantified on a multipurpose plate reader. IC50s were calculated using standard four-parametric curve fitting. […] Each experiment was performed at least twice, with results being reproducible.
Background: Cellular ATP, detected with luciferase, serves as a proxy for viable cell number.

Experiment [1] relates to EOL1 human acute myeloid (eosinophilic) leukemia xenograft model. The experiment is described as follows: EOL1 xenograft, CD74-ADCs Fc silent with different linker payloads (Example 15). It counts as in vivo, mice. As to conditions: for T/C (%): day 10; for ΔTumor volume (mm^3): day 10, mean. As for the experimental part: To optimize the linker payload, efficacy of 6 CD74-ADCs with different linker payloads (L5-P1, L30-P1, L31-P1, L32-P1, L33-P1 and L34-P1) was evaluated in the EOL1 model in vivo.
EOL1 luciferase transfected cells were cultured at 37° C. in an atmosphere of 5% CO2 in air in RPM11640 (BioConcept Ltd. Amimed) supplemented with 10% FCS (BioConcept Ltd. Amimed, #2-01 F30-1), 2 mM L-glutamine (BioConcept Ltd. Amimed, #5-10K00-H) and 1 mM sodium pyruvate (BioConcept Ltd. Amimed, #5-60F00-H), 10 mM HEPES (Gibco #11560496). To establish EOL1 xenografts cells were harvested and re-suspended in HBSS (Gibco, #14175) before injecting 100 μL containing 5×10^6 cells subcutaneously in the flanks of female SCID beige mice (Charles River, Germany). Tumor growth was monitored regularly post cell inoculation and animals were randomized into treatment groups (n=6) with a mean tumor volume of about 130 mm^3. The ADCs were administered intravenously (iv) once at the start of treatment at 2.5 mg/kg or at 3.3 mg/kg in combination with venetoclax which was administered orally (po) daily (qd) at 50 mg/kg. Doses were adjusted to individual mouse body weights. The iv dose volume was 10 ml/kg and each ADC was dissolved in 0.9% (w/v) NaCl in water. Tumor volume data on day 10 post treatment were analyzed statistically using one way ANOVA post hoc Tukey's multiple comparisons test (Indigo Software). Results are presented as mean±SEM. As a measure of efficacy the % T/C value is calculated on day 10 according to:
(Δtumor volume^treated/Δtumor volume^control)*100
Tumor regression was calculated according to:
−(Δtumor volume^treated/tumor volume^treated at start)*100
Where Δtumor volumes represent the mean tumor volume on the evaluation day minus the mean tumor volume at the start of the experiment.

The mark [2] stands for this setting: 2.5 mg/kg i.v. once + Venetoclax 50 mg/kg p.o. qd.
Setting [3] is: female SCID beige mice, 2.5 mg/kg i.v. once + Venetoclax 50 mg/kg p.o. qd.
Setting [4] is: 3.3 mg/kg i.v. once + Venetoclax 50 mg/kg p.o. qd.

What is called IC50 is the concentration that gives 50% inhibition.

The structures appear in SMILES notation. Like-named read-outs stand apart in the source and are kept apart here. Marks after values point to notes of the source that are not given here.

In the case of `COc1ccccc1-c1nccc(COc2ccccc2C[C@@H](Oc2ncnc3sc(-c4ccc(F)cc4)c(-c4ccc(OCCN5CC[N+](C)(Cc6ccc(NC(=O)[C@H](CCCNC(N)=O)NC(=O)[C@@H](NC(=O)CCOCCN7C(=O)CC(C)C7=O)C(C)C)cc6)CC5)c(Cl)c4C)c23)C(=O)O)n1` (stereo partly shown) [CD74-L9-P1], in the experiment with Monomac1 cells (72 h), the IC50 stood at 0.482 nM. Take `COCCOCCOCCOCCOCCOCCOCCOCCOCCOCCOCCOCCC(=O)N(C)Cc1cc(NC(=O)[C@H](CCCNC(N)=O)NC(=O)[C@@H](NC(=O)CCOCCN2C(=O)CC(C)C2=O)C(C)C)ccc1C[N+]1(C)CCN(CCOc2ccc(-c3c(-c4ccc(F)cc4)sc4ncnc(O[C@H](Cc5ccccc5OCc5ccnc(-c6ccccc6OC)n5)C(=O)O)c34)c(C)c2Cl)CC1` (stereo partly shown) [CD74-L32-P1]: the “T/C (%)” value in experiment [1] (setting [2]) is on record as 4*^$ %. The “ΔTumor volume (mm^3)” value in experiment [1] (setting [3]) amounted to 38 mm^3. As to `COCCOCCOCCOCCOCCOCCOCCOCCOCCOCCOCCOCCOCCOCCOCCOCCn1cc(COCc2cc(NC(=O)[C@H](CCCNC(N)=O)NC(=O)[C@@H](NC(=O)CCOCCN3C(=O)CC(C)C3=O)C(C)C)ccc2C[N+]2(C)CCN(CCOc3ccc(-c4c(-c5ccc(F)cc5)sc5ncnc(O[C@H](Cc6ccccc6OCc6ccnc(-c7ccccc7OC)n6)C(=O)O)c45)c(C)c3Cl)CC2)nn1` (stereo partly shown) [CD74-L34-P1], the “T/C (%)” value is given as 40* % in experiment [1] (setting [2]) and 17*^$ % in experiment [1] (setting [4]). For the same molecule, the “ΔTumor volume (mm^3)” value in experiment [1] (setting [4]) was found to be 170 mm^3; in experiment [1] (setting [3]), 401 mm^3.

As to `COc1ccccc1-c1nccc(COc2ccc3cc2C[C@H](C(=O)O)Oc2ncnc4sc(-c5ccc(F)cc5)c(c24)-c2c(C)c(Cl)c(c(Cl)c2C)O[C@H](CN2CCN(C)CC2)CO3)n1` [P15, (11R,20R)-23,26-dichloro-3-(4-fluorophenyl)-14-[[2-(2-methoxyphenyl)pyrimidin-4-yl]methoxy]-24,25-dimethyl-20-[(4-methylpiperazin-1-yl)methyl]-10,18,21-trioxa-4-thia-6,8-diazapentacyclo[20.2.2.12,5.113,17.09,28]octacosa-1(25),2,5(28),6,8,13,15,17(27),22(26),23-decaene-11-carboxylic acid], the IC50 with Monomac1 cells (Mono-Mac-1, 72 h) was found to be 0.386 nM. On the same count and under the same terms, the value for `Cc1c(Cl)c2c(Cl)c(C)c1-c1c(-c3ccc(F)cc3)sc3ncnc(c13)O[C@@H](C(=O)O)Cc1cc(ccc1OCc1ccnc([C@H]3CC[C@](F)(COC[C@@H]4COCCO4)CC3)n1)OC[C@@H](CN1CCN(C)CC1)O2` [P16, (11R,20R)-23,26-dichloro-14-[[2-[4-[[(2S)-1,4-dioxan-2-yl]methoxymethyl]-4-fluoro-cyclohexyl]pyrimidin-4-yl]methoxy]-3-(4-fluorophenyl)-24,25-dimethyl-20-[(4-methylpiperazin-1-yl)methyl]-10,18,21-trioxa-4-thia-6,8-diazapentacyclo[20.2.2.12,5.113,17.09,28]octacosa-1(24),2,5(28),6,8,13,15,17(27),22,25-decaene-11-carboxylic Acid] was 0.281 nM. As to `Cc1c(Cl)c2c(Cl)c(C)c1-c1c(-c3ccc(F)cc3)sc3ncnc(c13)O[C@@H](C(=O)O)Cc1cc(ccc1OCc1ccnc([C@H]3CC[C@H](OC[C@@H]4COCCO4)CC3)n1)OC[C@@H](CN1CCN(C)CC1)O2` [P17, (11R,20R)-23,26-dichloro-14-[[2-[4-[[(2S)-1,4-dioxan-2-yl]methoxy]cyclohexyl]pyrimidin-4-yl]methoxy]-3-(4-fluorophenyl)-24,25-dimethyl-20-[(4-methylpiperazin-1-yl)methyl]-10,18,21-trioxa-4-thia-6,8-diazapentacyclo[20.2.2.12,5.113,17.09,28]octacosa-1(24),2,5(28),6,8,13,15,17(27),22,25-decaene-11-carboxylic Acid], the IC50 with Monomac1 cells (Mono-Mac-1, 72 h) came out at 0.62 nM.
